± gives the expanded uncertainty stated by the source.
Tests used:
[1] = xn = mol fraction of the nth substance listed; details: 93.4 kPa, Liquid, x2 = 0.059; for viscosity: Concentric cylinders viscometry; for mass density: Vibrating tube method
[2] = Liquid; for viscosity / mass density: 93.4 kPa; for viscosity: Concentric cylinders viscometry; for mass density: Vibrating tube method; for vapor or sublimation pressure: Closed cell (Static) method

C=CCn1cc[n+](C)c1.[Cl-] [1-allyl-3-methylimidazolium chloride] + O
[1]
Details | mass density [kg/m3] | viscosity [mPa·s]
323.15 K | 1132.7 ± 1.1 | 212 ± 6
333.15 K | 1127.1 ± 1.1 | 115 ± 3
343.15 K | 1121.5 ± 1 | 68.7 ± 1.6
353.15 K | 1116 ± 1 | 44 ± 1
363.15 K | 1110.5 ± 1 | 30 ± 0.7
373.15 K | 1105.2 ± 1 | 21.4 ± 0.5

C[S+](C)[O-] [dimethyl sulfoxide]
[2]
Details | mass density [kg/m3] | vapor or sublimation pressure [kPa] | viscosity [mPa·s]
293.15 K | 1101.2 ± 1.1 | – | 2.26 ± 0.05
303.15 K | 1091.2 ± 1.1 | – | 1.85 ± 0.04
313.15 K | 1081.1 ± 1.1 | – | 1.56 ± 0.04
323.15 K | 1071.1 ± 1 | – | 1.33 ± 0.03
333.15 K | 1061.2 ± 1 | – | 1.16 ± 0.03
343.15 K | 1051.3 ± 1 | – | 1.02 ± 0.02
353.1 K | – | 2 ± 0.2 | –
353.15 K | 1041.1 ± 1 | – | 0.905 ± 0.021
363.1 K | – | 3.2 ± 0.3 | –
363.15 K | 1031.3 ± 1 | – | 0.815 ± 0.019
373.1 K | – | 5 ± 0.5 | –
373.15 K | 1021.4 ± 1 | – | 0.741 ± 0.018
383.1 K | – | 7.6 ± 0.7 | –
393.1 K | – | 11.2 ± 1 | –
403.1 K | – | 16 ± 1.4 | –
413.1 K | – | 22.7 ± 2 | –
423.1 K | – | 31.6 ± 2.8 | –
433.1 K | – | 43.2 ± 4.5 | –
